The source of these data is patent publication US20260272879A1, “ANION-BINDING AROMATIC OLIGOAMIDE MACROCYCLES AND METHODS OF MAKING AND USING SAME” (The Research Foundation for The State University of New York, priority 2023, published 2026).

Where two headings read alike, the source gives them in different places.

Data set [1] is described as follows: 1H NMR titration, binding of BF4^−. The note with it: DMSO-d6:CDCl3 (15:85, v/v), 25° C., NMR titration (protons a and b). On the procedure: (§1) ^1H NMR titration methods. Titrations of c5a and c5b with anions as their tetra-n-butylammonium (TBA), tetra-ethylammonium (TEA) and tetra-methylammonium (TMA) salts were carried out by ^1H NMR (400 MHz) at 25° C. 0.4 mL of corresponding hosts solutions were prepared in the rubber-cap NMR tubes. Aliquots of concentrated guest solution containing hosts were added into the NMR tubes using 20 microliter pipette. An initial ^1H NMR spectrum was collected and additional spectra were obtained after each injection of guest solution. All titration ^1H NMR spectra were stacked together and the chemical shifts of the internal aromatic CH proton were then fitted to 1:1 binding model using BindFit v0.5 (http://app.supramolecular.org/bindfit/) to evaluate binding constants to anions.

Data set [2] in a line: Carrier vs channel chloride transport with DPPC LUVs. The data set is classed as biochemical. To be noted: HPTS. On the procedure:
Differentiation of carrier vs channel chloride transport with DPPC LUVs. An aliquot (20 μL) DPPC LUVs (intravesicular components: 10 mM HEPES, 100 mM NaCl, pH 7.0) was added to 1.98 mL of a buffer comprised of 10 mM HEPES, 100 mM NaCl, pH 7, followed by incubating at 45° C. for 3 min. An aliquot (20 μL) of c5a (0.2 mM) in DMF was added to the LUVs, with the final concentration of c5a being […], and the solution was incubated for an additional 3 min at 45° C. LUVs with c5a were incubated either at 45° C. or 25° C. for 3 minutes.

Data set [3] can be described thus: 1H NMR titration, binding of bromide. The note with it: DMSO-d6:CDCl3 (15:85, v/v), 25° C., NMR titration (protons a and b). On the procedure: […] […] The titration data were collected by monitoring the changes in chemical shifts of the backbone amide protons and the inner aromatic protons with varying ratios of the anion guests. Job plots indicate that these linear oligoamides and their anion guests bind in a 1:1 stoichiometry.
as §1

Data set [4] can be described thus: Isothermal titration calorimetry (ITC), NO3^−. The data set is classed as binding. The note with it: DMSO:CHCl3 (5:95, v/v), 25° C. On the procedure:
(§2) Isothermal titration calorimetry (ITC) experiments were performed using a MicroCal VP-ITC. ITC experiments were conducted by adding ~1.5 mL of a solution containing c5a to the sample cell. Followed by titrating 10 μL aliquots of a solution containing the corresponding TBA·X salt (~10-14× concentration of c5a solution) from the syringe into the sample cell. Heats of dilution were obtained by titrating 10 μL aliquots of the TBA·X solution from the syringe into the sample cell in the absence of c5a. The heats of dilution were subtracted from the raw data. ITC data processing and curve fitting was done using the Origin program (MicroCal).
(§3) Two-step competition ITC experiments for determining the Ka of c5a and iodide. In CH3CN:CHCl3 (5:95, v/v), the binding affinity of c5a for I^− was too high to be determined with direct NMR or ITC titration. Instead, two-step competition ITC experiments with Cl^− as the competitor were performed.
In general terms: ITC needs no label: the signal is the heat of the interaction.

Data set [5] in a line: Isothermal titration calorimetry (ITC), IO4^−. To be noted: 25° C. The data set is classed as binding. On the procedure:
as §2, §3

A short description of data set [6]: Isothermal titration calorimetry (ITC), Cl^−. The data set is classed as binding. The note with it: 25° C. On the procedure: as §2, §3
Data set [7] in a line: EC50 of halide transport, HPTS assay. The note with it: POPC LUVs, entrapped HPTS. The data set is classed as biochemical. On the procedure:
The time course of the emission intensity of intravesicular HPTS, It, was obtained first by ratiometric analysis (Rt=It,450/It,405), followed by normalization according to equation (S1),
where R0=Rt at t=100 s, before the addition of c5a; R∞=Rt at t=350 s upon the addition of Triton X-100. Normalized intensity ratio at 300 s just before addition of Triton X-100 was defined as the transmembrane activity (Y) which was analyzed with the Hill equation (S2) to give effective concentration EC50 and the Hill coefficient n, (S2)
where Y0 is Y in absence of carrier, […], and c is the carrier concentration in a cuvette.

Data set [8] in a line: 1H NMR titration, binding of iodide. To be noted: DMSO-d6:CDCl3 (15:85, v/v), 25° C. On the procedure:
^1H NMR Titration methods. Titrations of 4c and 6c with anions as their tetra-n-butyl ammonium (TBA) salts were carried out by ^1H NMR (400 MHz on Bruker-400) at room temperature (298 K). 0.5 mL of receptor 4c (5.0 mM) or 6c (2.0 mM) were prepared in the rubber-cap NMR tubes. Aliquots of concentrated TBACl or TBAI solution (50 mM for the titration of 4c and 20 mM for the titration of 6c) containing the same amount of receptors were added into the receptor solution using 20 microliter pipette. An initial ^1H NMR spectrum was collected and additional spectra were obtained after each injection of TBACl or TBAI solution. All titration ^1H NMR spectra were stacked together and the chemical shifts of amide protons were then fitted to the proposed 1:1 binding model using BindFit v0.5 (http://app.supramolecular.org/bindfit/).
Anion binding with four amides, i.e., L1mer-L4mer, was studied in the mixed solvents of CD3CN/CDCl3 (1/9, v/v) by titrating an amide host with 0 to 5 equivalents of tetrabutylammonium (n-Bu4N^+) salt of the corresponding anion. The binding of chloride, bromide, iodide, and nitrate was examined with the four amides in CDCl3 containing 10% CD3CN. The titration data were collected by monitoring the changes in chemical shifts of the backbone amide protons and the inner aromatic protons with varying ratios of the anion guests. […]

Data set [9] is described as follows: Isothermal titration calorimetry (ITC), BF4^−. The data set is classed as binding. To be noted: DMSO:CHCl3 (5:95, v/v), 25° C. On the procedure:
as §2, §3

Data set [10] can be described thus: Solubility. The data set is classed as physicochemical. The note with it: CHCl3, CH2Cl2, DMF, and DMSO.
Data set [11] in a line: Isothermal titration calorimetry (ITC), Br^−. The data set is classed as binding. The note with it: 25° C. On the procedure:
as §2, §3

Turning to `CCCCCCCCOCC(C)(C)C(=O)Nc1ccc2cc1C(=O)Nc1ccc(NC(=O)C(C)(C)COCCCCCCCC)c(c1)C(=O)Nc1ccc(NC(=O)C(C)(C)COCCCCCCCC)c(c1)C(=O)Nc1ccc(NC(=O)C(C)(C)COCCCCCCCC)c(c1)C(=O)Nc1ccc(NC(=O)C(C)(C)COCCCCCCCC)c(c1)C(=O)N2` [c5a], the “Association constant Ka, 1:1 complex with BF4^−” value in data set [1] is listed as “(4.73 ± 0.38) × 10^4 M^−1”; in data set [9], “(8.70 ± 0.40) × 10^5 M^−1”. Moreover, the “chloride transport into DPPC LUVs” value in data set [2] (25° C. (gel phase), c5a pre-incubated at 45° C.) is given as “completely prohibited”; in data set [2] (45° C. (fluid phase)) it was “enhanced halide transport”. For the same compound, the “Association constant Ka, 1:1 complex with Br^−” value in [3] is “(9.82 ± 1.08) × 10^3 M^−1”; in data set [11] (CH3CN:CHCl3 (5:95, v/v)) it was “(1.79 ± 0.34) × 10^7 M^−1”; in data set [11] (DMSO:CHCl3 (5:95, v/v)), “(1.37 ± 0.04) × 10^4 M^−1”. Also, the “Association constant Ka, 1:1 complex with NO3^−” value in data set [4] is given as “(1.30 ± 0.10) × 10^6 M^−1”. Further, the “Association constant Ka, 1:1 complex with IO4^−” value in [5] (CH3CN:CHCl3 (5:95, v/v)) is on record as “(2.54 ± 0.22) × 10^7 M^−1”; in [5] (DMSO:CHCl3 (5:95, v/v)) it was “(1.72 ± 0.05) × 10^5 M^−1”. Further, the “Association constant Ka, 1:1 complex with Cl^−” value is on record as “(2.34 ± 0.24) × 10^6 M^−1” in data set [6] (CH3CN:CHCl3 (5:95, v/v)) and “(1.60 ± 0.10) × 10^4 M^−1” in data set [6] (DMSO:CHCl3 (5:95, v/v)). Besides, the EC50 (as a rule, the concentration that produces a half-maximal response) is 4.11 µM in data set [7] (c5a 0.05 to 10 μM, base pulse, read-out: EC50 for the transport of Br^−); 0.31 µM in data set [7] (c5a 0.05 to 10 μM, base pulse, read-out: EC50 for the transport of Cl^−); over 10 µM in data set [7] (c5a up to 10 μM, too large to be measured, read-out: EC50 for the transport of I^−). Moreover, the “Association constant Ka, 1:1 complex with I^−” value in data set [8] (single NMR titration (protons a and b)) is listed as “(2.73 ± 0.17) × 10^4 M^−1”; in data set [8] (triplicate NMR titrations (footnote c)), “(3.77 ± 0.25) × 10^4 ^c M^−1”. In data set [10], the “solubility in organic solvents” value is on record as “soluble”.
